Test: Stability of polymorphs: competitive slurry of both forms, polymorphic form determined by high throughput pXRD
Assay type: physicochemical
Protocol: Equal amounts of the polymorph of the invention and the Reference Form A polymorph were stirred in 33% methylcyclohexane/xylene for 4 days at a range of temperatures: 6° C., 35° C., 40° C. and 52° C. After the 4 days, the crystals were isolated and dried and their polymorphic form determined by high throughput pXRD. […] As such, formulations of the polymorph of the invention made and stored at up to 52° C. will be unlikely to show unwanted crystal growth.

characteristic pXRD reflections in the isolated crystals (equal amounts of both polymorphs stirred in 33% methylcyclohexane/xylene for 4 days, all temperatures (6° C., 35° C., 40° C., 52° C.))	Structure (SMILES)	stable polymorphic form (equal amounts of both polymorphs stirred in 33% methylcyclohexane/xylene for 4 days at 6° C., 35° C., 40° C. and 52° C., crystals isolated, dried, pXRD)
absent	CCOC(=O)OC1=C(c2c(C)cc(Cl)cc2C)C(=O)N(C)C12CCN(OC)CC2 [Reference Form A]	
	CCOC(=O)OC1=C(c2c(C)cc(Cl)cc2C)C(=O)N(C)C12CCN(OC)CC2 [polymorph of the invention]	the stable form over the temperature range studied
